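Interpolation was linear, between the two tested concentrations surrounding the appropriate level; five concentrations were tested over 48 hours in 96-well plates. GI50 marks 50% less growth. The concentration for full growth arrest is given as TGI.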
Experiments:
Assay in all cases: NCI tumour cell line growth inhibition, 48 h
SNB-78 CNS = system: SNB-78 CNS
DMS 114 small cell lung = system: DMS 114 small cell lung
DLD-1 colon = system: DLD-1 colon
LXFL 529 NSCLC = system: LXFL 529 NSCLC
XF 498 CNS = system: XF 498 CNS
DMS 273 small cell lung = system: DMS 273 small cell lung
HOP-18 NSCLC = system: HOP-18 NSCLC
RXF-631 renal = system: RXF-631 renal
KM20L2 colon = system: KM20L2 colon
SN12K1 renal = system: SN12K1 renal
P388/ADR leukemia = system: P388/ADR leukemia
P388 leukemia = system: P388 leukemia

Row | Compound | TGI (SNB-78 CNS) | TGI (DMS 114 small cell lung) | TGI (DLD-1 colon) | TGI (LXFL 529 NSCLC) | TGI (XF 498 CNS) | TGI (DMS 273 small cell lung) | TGI (HOP-18 NSCLC) | TGI (RXF-631 renal) | TGI (KM20L2 colon) | TGI (SN12K1 renal) | TGI (P388/ADR leukemia) | TGI (P388 leukemia) | GI50 (HOP-18 NSCLC) | GI50 (DMS 114 small cell lung) | GI50 (DLD-1 colon) | GI50 (LXFL 529 NSCLC) | GI50 (KM20L2 colon) | GI50 (DMS 273 small cell lung)
1 | O=C(Cl)c1cc([N+](=O)[O-])cc([N+](=O)[O-])c1 | > 100 µM | > 100 µM | > 100 µM | > 100 µM | > 100 µM | > 100 µM | – | – | – | – | – | – | – | – | – | – | – | –
2 | CN(C)CCCNc1ccc2nnn3c4ccc([N+](=O)[O-])cc4c(=O)c1c23 | 16 µM | 14.1 µM | 14.4 µM | 15 µM | 11.4 µM | 6.89 µM | 13.6 µM | 7.59 µM | 9.69 µM | – | – | – | – | – | – | – | – | –
3 | CC(C)CCC[C@@H](C)[C@H]1CC[C@H]2[C@@H]3CC=C4CC(OCCCCN(O)CCCSC5OC(CO)C(O)C(O)C5O)CC[C@]4(C)[C@H]3CC[C@]12C (stereo partly specified) | > 100 µM | 45.6 µM | > 100 µM | 47.3 µM | > 100 µM | > 100 µM | – | – | > 100 µM | – | – | – | – | – | – | – | – | –
4 | CCC1OC(=O)C(C)C(OC2CC(C)(O)C(O)C(C)O2)C(C)C(O)C(C)(O)CC(C)C(=O)C(C)C(O)C1C (stereo unspecified) | > 189 µM | > 300 µM | > 300 µM | – | > 300 µM | > 300 µM | > 300 µM | – | > 300 µM | > 300 µM | > 300 µM | > 300 µM | – | – | – | – | – | –
5 | CC(C)(C)C(=O)Cc1cc2c(cc1C(=O)O)S(=O)(=O)NC(C(C)(C)C)=C2 | > 100 µM | > 100 µM | > 100 µM | > 100 µM | – | – | – | – | – | – | – | – | – | – | – | – | – | –
6 | COc1ccc(C2Oc3cc(OC)c(O)cc3[C@@H]2C)cc1 (stereo partly specified) | > 100 µM | 40.3 µM | 44.4 µM | 32.1 µM | 35.6 µM | > 100 µM | > 100 µM | – | > 100 µM | – | – | – | – | – | – | – | – | –
7 | Nc1nc(NC(=O)C2=NS(=O)(=O)c3cc(S(N)(=O)=O)c(Cl)cc3N2)n[nH]1 | > 100 µM | > 100 µM | > 100 µM | > 100 µM | > 100 µM | – | > 100 µM | – | > 100 µM | – | – | – | – | – | – | – | – | –
8 | COc1cc(/C=C/C(=O)C(C)(C)C)cc(OC)c1OC | – | 71.5 µM | > 100 µM | 93.5 µM | > 100 µM | > 100 µM | > 100 µM | – | > 100 µM | – | – | – | – | – | – | – | – | –
9 | COc1cc2c(oc(=O)c3c4oc([Si](C)(C)C)cc4cc(OC)c23)c2cccc(O)c12 | – | > 100 µM | > 100 µM | > 100 µM | > 100 µM | > 100 µM | > 100 µM | – | > 100 µM | – | – | – | – | – | – | – | – | –
10 | CC(=O)NC(Cc1ccccc1)C(=S)N1CCCC1 (stereo unspecified) | > 100 µM | > 100 µM | > 100 µM | > 100 µM | > 100 µM | > 100 µM | > 100 µM | > 100 µM | > 100 µM | – | – | – | – | – | – | – | – | –
11 | O=C(CCc1nnc2s/c(=C\c3ccc(Cl)cc3Cl)c(=O)n12)Nc1cc(Cl)c(Cl)cc1Cl | > 100 µM | > 100 µM | > 100 µM | > 100 µM | – | > 100 µM | > 100 µM | > 100 µM | > 100 µM | – | – | – | > 100 µM | > 100 µM | > 100 µM | > 100 µM | > 100 µM | > 100 µM
12 | Cc1ccc(CCNC(=S)SCC(NC(=O)CCC(N)C(=O)O)C(=O)NCC(=O)O)cc1 (stereo unspecified) | – | 2.72 µM | 2.63 µM | 2.12 µM | 3.15 µM | 1.68 µM | 7.76 µM | 5.62 µM | 5.1 µM | – | – | – | – | – | – | – | – | –
13 | COc1nc(NC2OCC(OC(C)=O)C(OC(C)=O)C2OC(C)=O)c(N=C(C)C(C)=O)c(=O)n1C (stereo unspecified) | > 100 µM | > 100 µM | > 100 µM | – | > 100 µM | > 100 µM | > 100 µM | > 100 µM | > 100 µM | – | – | – | – | – | – | – | – | –
14 | O=C(N/N=C/c1cc(-c2ccccc2Cl)c(-c2ccccc2Cl)o1)c1ccncc1 | – | > 100 µM | > 100 µM | > 100 µM | > 100 µM | – | – | > 100 µM | > 100 µM | – | – | – | – | – | – | – | – | –
15 | COC(=O)c1cc(CNCCc2c[nH]c3ccccc23)on1 | – | > 100 µM | > 100 µM | > 100 µM | 67.4 µM | > 100 µM | – | > 100 µM | > 100 µM | – | – | – | – | – | – | – | – | –
16 | O=c1[nH]c2cccccc-2c1-c1nc2ccccc2[nH]1 | > 100 µM | > 100 µM | > 100 µM | > 100 µM | 42.3 µM | 70.6 µM | – | – | > 100 µM | – | – | – | – | – | – | – | – | –
17 | COc1ccccc1C1C(Cl)C(=O)N1NC(=O)Cc1ccccc1 (stereo unspecified) | > 100 µM | > 100 µM | – | > 100 µM | > 100 µM | > 100 µM | > 100 µM | – | > 100 µM | – | – | – | – | – | – | – | – | –

Reference: PubChem BioAssay (NCI)
